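All cell lines were grown in 96-well plates and treated with compound for 48 hours. TGI: concentration producing complete growth inhibition.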
Assays:
Experiment in all cases: NCI tumour cell line growth inhibition, 48 h
ACHN renal = tested on: ACHN renal
SNB-75 CNS = tested on: SNB-75 CNS
HCT-15 colon = tested on: HCT-15 colon
OVCAR-3 ovarian = tested on: OVCAR-3 ovarian
DLD-1 colon = tested on: DLD-1 colon
SR leukemia = tested on: SR leukemia
M14 melanoma = tested on: M14 melanoma
HOP-18 NSCLC = tested on: HOP-18 NSCLC
A498 renal = tested on: A498 renal
KM20L2 colon = tested on: KM20L2 colon
MALME-3M melanoma = tested on: MALME-3M melanoma
RXF-631 renal = tested on: RXF-631 renal
LXFL 529 NSCLC = tested on: LXFL 529 NSCLC
HL-60(TB) leukemia = tested on: HL-60(TB) leukemia
UACC-257 melanoma = tested on: UACC-257 melanoma
HT29 colon = tested on: HT29 colon
SN12C renal = tested on: SN12C renal
SW-620 colon = tested on: SW-620 colon
NCI-H23 lung = tested on: NCI-H23 lung
TK-10 renal = tested on: TK-10 renal
SNB-19 CNS = tested on: SNB-19 CNS
SF-539 CNS = tested on: SF-539 CNS
SK-MEL-2 melanoma = tested on: SK-MEL-2 melanoma
OVCAR-4 ovarian = tested on: OVCAR-4 ovarian
NCI-H460 lung = tested on: NCI-H460 lung
HOP-92 NSCLC = tested on: HOP-92 NSCLC
OVCAR-5 ovarian = tested on: OVCAR-5 ovarian
DMS 114 small cell lung = tested on: DMS 114 small cell lung
M19-MEL melanoma = tested on: M19-MEL melanoma
SK-MEL-28 melanoma = tested on: SK-MEL-28 melanoma
786-0 renal = tested on: 786-0 renal
HCT-116 colon = tested on: HCT-116 colon
K-562 leukemia = tested on: K-562 leukemia
CCRF-CEM leukemia = tested on: CCRF-CEM leukemia
EKVX NSCLC = tested on: EKVX NSCLC
SF-295 CNS = tested on: SF-295 CNS
MOLT-4 leukemia = tested on: MOLT-4 leukemia
SK-MEL-5 melanoma = tested on: SK-MEL-5 melanoma
UACC-62 melanoma = tested on: UACC-62 melanoma
A549 NSCLC = tested on: A549 NSCLC
KM12 colon = tested on: KM12 colon
UO-31 renal = tested on: UO-31 renal
SF-268 CNS = tested on: SF-268 CNS
OVCAR-8 ovarian = tested on: OVCAR-8 ovarian
RXF 393 renal = tested on: RXF 393 renal
NCI-H522 lung = tested on: NCI-H522 lung
HCC-2998 colon = tested on: HCC-2998 colon
IGROV1 ovarian = tested on: IGROV1 ovarian
U251 CNS = tested on: U251 CNS
COLO 205 colon = tested on: COLO 205 colon
LOX IMVI melanoma = tested on: LOX IMVI melanoma
XF 498 CNS = tested on: XF 498 CNS
SK-OV-3 ovarian = tested on: SK-OV-3 ovarian
DMS 273 small cell lung = tested on: DMS 273 small cell lung
RPMI-8226 leukemia = tested on: RPMI-8226 leukemia
HOP-62 NSCLC = tested on: HOP-62 NSCLC
SNB-78 CNS = tested on: SNB-78 CNS
CAKI-1 renal = tested on: CAKI-1 renal
NCI-H226 lung = tested on: NCI-H226 lung

Q: Which results are given for `CC(C)=C1CCC(CN(C)C)C1=O` (stereo not drawn)?
A: TGI (ACHN renal): 31.5 µM; TGI (SNB-75 CNS): 24.2 µM; TGI (HCT-15 colon): 30.8 µM; TGI (OVCAR-3 ovarian): 31.7 µM; TGI (DLD-1 colon): 36.8 µM; TGI (SR leukemia): 36.5 µM; TGI (M14 melanoma): 28.4 µM; TGI (HOP-18 NSCLC): 36.6 µM; TGI (A498 renal): 36.9 µM; TGI (KM20L2 colon): 27.7 µM; TGI (MALME-3M melanoma): 30.2 µM; TGI (RXF-631 renal): > 100 µM; TGI (LXFL 529 NSCLC): 25.4 µM; TGI (HL-60(TB) leukemia): 15.6 µM; TGI (UACC-257 melanoma): 31.6 µM; TGI (HT29 colon): 41.1 µM; TGI (SN12C renal): 33.6 µM; TGI (SW-620 colon): 20.2 µM; TGI (NCI-H23 lung): > 100 µM; TGI (TK-10 renal): 31 µM; TGI (SNB-19 CNS): > 100 µM; TGI (SF-539 CNS): > 100 µM; TGI (SK-MEL-2 melanoma): 78.4 µM; TGI (OVCAR-4 ovarian): 28.4 µM; TGI (NCI-H460 lung): > 100 µM; TGI (HOP-92 NSCLC): 40.6 µM; TGI (OVCAR-5 ovarian): > 100 µM; TGI (DMS 114 small cell lung): 38.4 µM; TGI (M19-MEL melanoma): > 100 µM; TGI (SK-MEL-28 melanoma): 34 µM; TGI (786-0 renal): 25.9 µM; TGI (HCT-116 colon): 30.3 µM; TGI (K-562 leukemia): 31 µM; TGI (CCRF-CEM leukemia): 27.7 µM; TGI (EKVX NSCLC): 31.9 µM; TGI (SF-295 CNS): > 100 µM; TGI (MOLT-4 leukemia): 32.9 µM; TGI (SK-MEL-5 melanoma): 32.9 µM; TGI (UACC-62 melanoma): 35.1 µM; TGI (A549 NSCLC): > 100 µM; TGI (KM12 colon): > 100 µM; TGI (UO-31 renal): > 100 µM; TGI (SF-268 CNS): 97.3 µM; TGI (OVCAR-8 ovarian): 49.4 µM; TGI (RXF 393 renal): 33.5 µM; TGI (NCI-H522 lung): 0.4 µM; TGI (HCC-2998 colon): 33.2 µM; TGI (IGROV1 ovarian): > 100 µM; TGI (U251 CNS): > 100 µM; TGI (COLO 205 colon): 63.4 µM

Q: For `NC(=O)C(=O)CC(=O)c1ccccc1NC1=CC(=O)C(=O)c2ccccc21`, which TGI (ACHN renal) is on record?
A: > 100 µM

Q: What about the TGI (LOX IMVI melanoma) of the same molecule?
A: 36.1 µM

Q: What about the TGI (SNB-75 CNS) of the same molecule?
A: > 100 µM

Q: And the TGI (XF 498 CNS)?
A: > 100 µM

Q: And the TGI (HCT-15 colon)?
A: > 100 µM

Q: What about the TGI (OVCAR-3 ovarian) of the same molecule?
A: > 100 µM

Q: What about the TGI (DLD-1 colon) of the same molecule?
A: > 100 µM

Q: What about the TGI (M14 melanoma) of the same molecule?
A: > 100 µM

Q: And the TGI (HOP-18 NSCLC)?
A: > 100 µM

Q: What about the TGI (A498 renal) of the same molecule?
A: > 100 µM

Q: What about the TGI (KM20L2 colon) of the same molecule?
A: > 100 µM

Q: What about the TGI (MALME-3M melanoma) of the same molecule?
A: > 59 µM

Q: And the TGI (RXF-631 renal)?
A: > 100 µM

Q: What about the TGI (LXFL 529 NSCLC) of the same molecule?
A: > 100 µM

Q: What about the TGI (HL-60(TB) leukemia) of the same molecule?
A: > 76.6 µM

Q: And the TGI (UACC-257 melanoma)?
A: > 75.7 µM

Q: And the TGI (HT29 colon)?
A: > 100 µM

Q: And the TGI (SN12C renal)?
A: > 100 µM

Q: What about the TGI (SW-620 colon) of the same molecule?
A: > 100 µM

Q: And the TGI (NCI-H23 lung)?
A: > 100 µM

Q: What about the TGI (TK-10 renal) of the same molecule?
A: > 100 µM

Q: What about the TGI (SK-OV-3 ovarian) of the same molecule?
A: > 100 µM

Q: And the TGI (SNB-19 CNS)?
A: > 100 µM

Q: And the TGI (SF-539 CNS)?
A: > 100 µM

Q: And the TGI (SK-MEL-2 melanoma)?
A: > 100 µM

Q: And the TGI (DMS 273 small cell lung)?
A: > 100 µM

Q: What about the TGI (RPMI-8226 leukemia) of the same molecule?
A: > 100 µM

Q: What about the TGI (OVCAR-4 ovarian) of the same molecule?
A: > 100 µM

Q: And the TGI (NCI-H460 lung)?
A: > 100 µM

Q: What about the TGI (HOP-92 NSCLC) of the same molecule?
A: > 81.2 µM

Q: What about the TGI (OVCAR-5 ovarian) of the same molecule?
A: > 100 µM

Q: What about the TGI (DMS 114 small cell lung) of the same molecule?
A: 68.2 µM

Q: And the TGI (M19-MEL melanoma)?
A: 22.8 µM

Q: And the TGI (SK-MEL-28 melanoma)?
A: > 100 µM

Q: And the TGI (786-0 renal)?
A: > 100 µM

Q: What about the TGI (HCT-116 colon) of the same molecule?
A: > 100 µM

Q: And the TGI (K-562 leukemia)?
A: > 100 µM

Q: And the TGI (CCRF-CEM leukemia)?
A: > 100 µM

Q: What about the TGI (EKVX NSCLC) of the same molecule?
A: > 100 µM

Q: What about the TGI (MOLT-4 leukemia) of the same molecule?
A: > 100 µM

Q: And the TGI (SK-MEL-5 melanoma)?
A: > 55.1 µM

Q: What about the TGI (HOP-62 NSCLC) of the same molecule?
A: > 100 µM

Q: And the TGI (UACC-62 melanoma)?
A: > 72.4 µM

Q: What about the TGI (A549 NSCLC) of the same molecule?
A: > 100 µM

Q: And the TGI (KM12 colon)?
A: > 100 µM

Q: What about the TGI (UO-31 renal) of the same molecule?
A: > 100 µM

Q: What about the TGI (SF-268 CNS) of the same molecule?
A: > 85.7 µM

Q: And the TGI (OVCAR-8 ovarian)?
A: > 100 µM

Q: What about the TGI (RXF 393 renal) of the same molecule?
A: > 100 µM

Q: What about the TGI (SNB-78 CNS) of the same molecule?
A: > 100 µM

Q: What about the TGI (NCI-H522 lung) of the same molecule?
A: > 100 µM

Q: What about the TGI (HCC-2998 colon) of the same molecule?
A: > 100 µM

Q: What about the TGI (IGROV1 ovarian) of the same molecule?
A: > 100 µM

Q: And the TGI (U251 CNS)?
A: > 100 µM

Q: And the TGI (COLO 205 colon)?
A: > 100 µM

Q: What about the TGI (CAKI-1 renal) of the same molecule?
A: > 100 µM

Q: And the TGI (NCI-H226 lung)?
A: > 100 µM

Q: What does the source list for `Cc1cn([C@@H]2C[C@H](CO)[C@@H](O)C2)c(=O)[nH]c1=O`?
A: TGI (ACHN renal): > 100 µM; TGI (LOX IMVI melanoma): > 100 µM; TGI (SNB-75 CNS): > 100 µM; TGI (XF 498 CNS): > 100 µM; TGI (HCT-15 colon): > 100 µM; TGI (OVCAR-3 ovarian): > 100 µM; TGI (DLD-1 colon): > 100 µM; TGI (M14 melanoma): > 100 µM; TGI (HOP-18 NSCLC): > 100 µM; TGI (KM20L2 colon): > 100 µM; TGI (MALME-3M melanoma): > 100 µM; TGI (RXF-631 renal): > 100 µM; TGI (LXFL 529 NSCLC): > 100 µM; TGI (HL-60(TB) leukemia): > 100 µM; TGI (UACC-257 melanoma): > 100 µM; TGI (HT29 colon): > 100 µM; TGI (SN12C renal): > 100 µM; TGI (SW-620 colon): > 100 µM; TGI (NCI-H23 lung): > 100 µM; TGI (SK-OV-3 ovarian): > 100 µM; TGI (SNB-19 CNS): > 100 µM; TGI (SF-539 CNS): > 100 µM; TGI (SK-MEL-2 melanoma): > 100 µM; TGI (DMS 273 small cell lung): > 100 µM; TGI (OVCAR-4 ovarian): > 100 µM; TGI (NCI-H460 lung): > 100 µM; TGI (HOP-92 NSCLC): > 100 µM; TGI (OVCAR-5 ovarian): > 100 µM; TGI (DMS 114 small cell lung): > 100 µM; TGI (M19-MEL melanoma): > 100 µM; TGI (SK-MEL-28 melanoma): > 100 µM; TGI (HCT-116 colon): > 100 µM; TGI (K-562 leukemia): > 100 µM; TGI (CCRF-CEM leukemia): > 100 µM; TGI (EKVX NSCLC): > 100 µM; TGI (SF-295 CNS): > 100 µM; TGI (MOLT-4 leukemia): > 100 µM; TGI (HOP-62 NSCLC): > 100 µM; TGI (UACC-62 melanoma): > 100 µM; TGI (A549 NSCLC): > 100 µM; TGI (KM12 colon): > 100 µM; TGI (UO-31 renal): > 100 µM; TGI (SF-268 CNS): > 100 µM; TGI (OVCAR-8 ovarian): > 100 µM; TGI (SNB-78 CNS): > 100 µM; TGI (NCI-H522 lung): > 100 µM; TGI (HCC-2998 colon): > 100 µM; TGI (IGROV1 ovarian): > 100 µM; TGI (U251 CNS): > 100 µM; TGI (COLO 205 colon): > 100 µM; TGI (NCI-H226 lung): > 100 µM
